Values joined by “and” are separate entries in the source; they are usually repeats but may differ in a detail not shown here. Equal entries are not always repeated. Bridge positions count the residues as written; N and C are the ends. Square brackets hold non-standard residues; d marks the D form. Peptide text beside a SMILES is read from it. Sec = N[C@@H](C[SeH])C(=O)O
Legend:
[1] = biological target: T1, calcitonin receptor (CTR) (Homo sapiens, UniProt P30988); assay: cAMP accumulation assay, U2OS Red cAMPNomad-CALCR cell line; assay type: cell-based; set-up: expressed in transfected cells; host or cells: U2OS Red cAMPNomad-CALCR; conditions: U2OS Red cAMPNomad-CALCR cells; for EC50: overnight incubation
T1 sequence (P30988 25-474): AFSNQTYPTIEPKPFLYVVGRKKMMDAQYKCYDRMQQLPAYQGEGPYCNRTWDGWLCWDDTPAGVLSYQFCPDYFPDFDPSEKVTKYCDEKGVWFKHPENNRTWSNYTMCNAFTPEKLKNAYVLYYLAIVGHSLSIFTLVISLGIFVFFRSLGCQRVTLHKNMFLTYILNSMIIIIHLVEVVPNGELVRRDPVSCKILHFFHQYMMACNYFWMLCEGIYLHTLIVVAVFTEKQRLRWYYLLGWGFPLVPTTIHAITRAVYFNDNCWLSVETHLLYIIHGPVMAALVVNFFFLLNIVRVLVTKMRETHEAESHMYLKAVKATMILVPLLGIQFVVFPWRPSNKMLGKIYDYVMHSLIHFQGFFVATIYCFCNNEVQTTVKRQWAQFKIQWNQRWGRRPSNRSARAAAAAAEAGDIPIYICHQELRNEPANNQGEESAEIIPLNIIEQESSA

[2] = Degradation in simulated gastric fluid (SGF); assay type: in vitro ADME; conditions: for half-life: simulated gastric fluid, pH 1.3, pepsin 0.2 mg/mL stock, read-out: SGF t1/2; for half-life / SGF t1/2 / half-life in SGF relative to sCT: pH 1.3, 37 °C; for SGF t1/2: pepsin 0.2 mg/mL stock; for half-life in SGF relative to sCT: pepsin
Experimental: sCT and its analogues were evaluated for their degradation in simulated gastric fluid (SGF). The stock solution of each analogue was prepared by dissolving 2 mg of the peptide in 1 mL water. The stock solution of pepsin enzyme was prepared by dissolving 5 mg of pepsin in 5 mL of 10 mM HCl (1 mg/mL), and then was diluted to a 0.2 mg/mL with 10 mM HCl. 7 For degradation, 34 μL of pepsin (0.2 mg/mL) was added to 100 μL of peptide (2 mg/mL) at pH 1.3 and the reaction incubated at 37° C. To monitor the degradation, 10 μL of the reaction aliquots were taken and quenched with 10 μL of 10 mM NaOH every 30 min for several hours and analyzed by HPLC using XSelect C18 column ([…], 130 A, 4.6×150 mm) with a gradient of 5-70% of 0.1% TFA in MeCN over 20 min with monitoring at 220 nm.

[3] = biological target: T1, calcitonin receptor (CTR); assay: Ca^2+ concentration assay, HEK293 CALCR-HiTSeeker cell line; assay type: cell-based; set-up: expressed in transfected cells; conditions: HEK293 CALCR-HiTSeeker cells
[4] = Circular dichroism analysis, percent α-helicity; assay type: physicochemical; conditions: 10 mM phosphate buffer pH 7, SDS; for % α helicity: 10-30 μM peptide, 2 h folding
Experimental: Following synthesis of the calcitonin analogues, the helicity of the calcitonin analogues was assessed by circular dichroism analysis. Far ultraviolet spectra (FIG. 6) were obtained from 195-260 nm on J-180 spectropolarimeter (Jasco) using 10-30 μM of sCT and all analogues in 10 mM phosphate buffer pH 7 and in the presence of sodium dodecyl sulphate (SDS), which were left for 2 h to allow folding. Each spectrum represents the average of 3 scans, and the mean residue ellipticity (θMRE) was calculated according to the following equation: […]
Percentage helicity of peptides as presented in Table 2 was calculated according to the following equation (Sommese, et al. 2010): […]
where n is the number of amino acids in the peptide.

[5] = Degradation in simulated intestinal fluid (SIF); conditions: for stability in SIF compared to sCT: pancreatin; for half-life: simulated intestinal fluid, pH 6.8, SIF t1/2, pancreatin 2 mg/mL stock

Row | EC50 ([1]; read-out: cAMP EC50) | EC50 ([1]; read-out: cAMP EC50 (bound)) [nM] | half-life [2] [min] | EC50 ([3]; read-out: Ca^2+ EC50) [nM] | EC50 ([3]; read-out: Ca^2+ EC50 (bound)) [nM] | helicity retained following cyclization [4] | % α helicity [4] [%] | SGF t1/2 [2] [min] | half-life in SGF relative to sCT ([2]; vs sCT) | half-life ([5]; pH 6.8, 37 °C) [min] | Ca^2+ EC50 / efficacy [3] | improvement in stability in simulated gastric fluid over sCT ([2]; vs sCT, first figure of sentence) [fold] | SIF t1/2 ([5]; pancreatin 2 mg/mL stock, pH 6.8, 37 °C) [min] | improvement in stability in simulated gastric fluid ([5]; vs sCT, second figure of sentence) [fold] | SMILES | cAMP EC50 / potency [1] | stability in SIF compared to sCT ([5]; pH 6.8, 37 °C, vs sCT)
1 | 1670 ± 60 nM | > 1000 | 33.5 ± 0.2 | 7300 ± 700 | > 1000 | retain the high degree of helicity | 98.5 |  |  |  |  |  |  |  | CC(C)C[C@H](NC(=O)[C@H](CCCCN)NC(=O)CNC(=O)[C@H](CC(C)C)NC(=O)[C@@H](NC(=O)[C@@H]1CSCSC[C@H](N)C(=O)N[C@@H](CO)C(=O)N[C@@H](CC(N)=O)C(=O)N[C@@H](CC(C)C)C(=O)N[C@@H](CO)C(=O)N[C@@H]([C@@H](C)O)C(=O)N1)C(C)C)C(=O)N[C@@H](CO)C(=O)N[C@@H](CCC(N)=O)C(=O)N[C@@H](CCC(=O)O)C(=O)N[C@@H](CC(C)C)C(=O)N[C@@H](Cc1c[nH]cn1)C(=O)N[C@@H](CCCCN)C(=O)N[C@@H](CC(C)C)C(=O)N[C@@H](CCC(N)=O)C(=O)N[C@H](C(=O)N[C@@H](Cc1ccc(O)cc1)C(=O)N1CCC[C@H]1C(=O)N[C@@H](CCCNC(=N)N)C(=O)N[C@H](C(=O)N[C@@H](CC(N)=O)C(=O)N[C@H](C(=O)NCC(=O)N[C@@H](CO)C(=O)NCC(=O)N[C@H](C(=O)N1CCC[C@H]1C(N)=O)[C@@H](C)O)[C@@H](C)O)[C@@H](C)O)[C@@H](C)O [MT-CT] |  | 
2 |  |  | 47.3 ± 1.9 |  |  |  | 62.9 |  |  |  |  |  |  |  | CC(C)C[C@H](NC(=O)[C@H](CCCCN)NC(=O)CNC(=O)[C@H](CC(C)C)NC(=O)[C@@H](NC(=O)[C@@H]1CSSC[C@H](N)C(=O)N[C@@H](CO)C(=O)N[C@@H](CC(N)=O)C(=O)N[C@@H](CC(C)C)C(=O)N[C@@H](CO)C(=O)N[C@@H]([C@@H](C)O)C(=O)N1)C(C)C)C(=O)N[C@@H](CO)C(=O)N[C@@H](CCC(N)=O)C(=O)N[C@H]1CCC(=O)NCCCC[C@@H](C(=O)N[C@@H](CC(C)C)C(=O)N[C@@H](CCC(N)=O)C(=O)N[C@H](C(=O)N[C@@H](Cc2ccc(O)cc2)C(=O)N2CCC[C@H]2C(=O)N[C@@H](CCCNC(=N)N)C(=O)N[C@H](C(=O)N[C@@H](CC(N)=O)C(=O)N[C@H](C(=O)NCC(=O)N[C@@H](CO)C(=O)NCC(=O)N[C@H](C(=O)N2CCC[C@H]2C(N)=O)[C@@H](C)O)[C@@H](C)O)[C@@H](C)O)[C@@H](C)O)NC(=O)[C@H](Cc2c[nH]cn2)NC(=O)[C@H](CC(C)C)NC1=O [CT(E15-K18)] |  | 
3 | 47.6 ± 24.1 nM |  | 190 | 166 ± 34.8 |  | retain the high degree of helicity | 93.7 | 191.2 ± 66.1 | five-fold longer half-life | 7.1 ± 0.7 | similar |  |  |  | CC(C)C[C@@H]1NC(=O)[C@@H](NC(=O)CNC(=O)[C@H](CC(C)C)NC(=O)[C@@H](NC(=O)[C@@H]2CSSC[C@H](N)C(=O)N[C@@H](CO)C(=O)N[C@@H](CC(N)=O)C(=O)N[C@@H](CC(C)C)C(=O)N[C@@H](CO)C(=O)N[C@@H]([C@@H](C)O)C(=O)N2)C(C)C)CCCCNCc2cc(ccc2O)C[C@@H](C(=O)N2CCC[C@H]2C(=O)N[C@@H](CCCNC(=N)N)C(=O)N[C@H](C(=O)N[C@@H](CC(N)=O)C(=O)N[C@H](C(=O)NCC(=O)N[C@@H](CO)C(=O)NCC(=O)N[C@H](C(=O)N2CCC[C@H]2C(N)=O)[C@@H](C)O)[C@@H](C)O)[C@@H](C)O)NC(=O)[C@H]([C@@H](C)O)NC(=O)[C@H](CCC(N)=O)NC(=O)[C@H](CC(C)C)NC(=O)[C@H](CCCCN)NC(=O)[C@H](Cc2c[nH]cn2)NC(=O)[C@H](CC(C)C)NC(=O)[C@H](CCC(=O)O)NC(=O)[C@H](CCC(N)=O)NC(=O)[C@H](CO)NC1=O [KaY-1] | EC50 in the nanomolar range | did not exhibit any improvements
4 |  |  | 34.5 ± 0.3 |  |  |  | 56.2 |  |  |  |  |  |  |  | CC(C)C[C@H](NC(=O)[C@H](CCCCN)NC(=O)CNC(=O)[C@H](CC(C)C)NC(=O)[C@@H](NC(=O)[C@@H]1CSSC[C@H](N)C(=O)N[C@@H](CO)C(=O)N[C@@H](CC(N)=O)C(=O)N[C@@H](CC(C)C)C(=O)N[C@@H](CO)C(=O)N[C@@H]([C@@H](C)O)C(=O)N1)C(C)C)C(=O)N[C@@H](CO)C(=O)N[C@@H](CCC(N)=O)C(=O)N[C@@H](CCC(=O)O)C(=O)N[C@@H](CC(C)C)C(=O)N[C@@H](Cc1c[nH]cn1)C(=O)N[C@H]1CCCCNCc2cc(ccc2O)C[C@@H](C(=O)N2CCC[C@H]2C(=O)N[C@@H](CCCNC(=N)N)C(=O)N[C@H](C(=O)N[C@@H](CC(N)=O)C(=O)N[C@H](C(=O)NCC(=O)N[C@@H](CO)C(=O)NCC(=O)N[C@H](C(=O)N2CCC[C@H]2C(N)=O)[C@@H](C)O)[C@@H](C)O)[C@@H](C)O)NC(=O)[C@H]([C@@H](C)O)NC(=O)[C@H](CCC(N)=O)NC(=O)[C@H](CC(C)C)NC1=O [KaY-2] |  | 
5 | 2.67 nM and 2.7 nM |  | 170 | 216 ± 43.8 |  |  |  | 170.6 ± 32.2 | five-fold longer half-life | 42 |  | 5 | 41.9 ± 6.1 | 6 | CC(C)C[C@@H]1NC(=O)[C@@H](NC(=O)CNC(=O)[C@H](CC(C)C)NC(=O)[C@@H](NC(=O)[C@@H]2CSSC[C@H](N)C(=O)N[C@@H](CO)C(=O)N[C@@H](CC(N)=O)C(=O)N[C@@H](CC(C)C)C(=O)N[C@@H](CO)C(=O)N[C@@H]([C@@H](C)O)C(=O)N2)C(C)C)CCCCNCc2cc(ccc2O)C[C@@H](C(=O)N2CCC[C@H]2C(=O)N[C@@H](CCC(N)=O)C(=O)N[C@H](C(=O)N[C@@H](CC(N)=O)C(=O)N[C@H](C(=O)NCC(=O)N[C@@H](CO)C(=O)NCC(=O)N[C@H](C(=O)N2CCC[C@H]2C(N)=O)[C@@H](C)O)[C@@H](C)O)[C@@H](C)O)NC(=O)[C@H]([C@@H](C)O)NC(=O)[C@H](CCC(N)=O)NC(=O)[C@H](CC(C)C)NC(=O)[C@H](CCCCN)NC(=O)[C@H](Cc2c[nH]cn2)NC(=O)[C@H](CC(C)C)NC(=O)[C@H](CCC(=O)O)NC(=O)[C@H](CCC(N)=O)NC(=O)[C@H](CO)NC1=O [KaY-1(R24Q)] |  | six-fold enhancement in stability compared to sCT

Row | SMILES | EC50 ([1]; read-out: cAMP EC50) | EC50 ([1]; read-out: cAMP EC50 (bound)) [nM] | half-life [2] [min] | EC50 ([3]; read-out: Ca^2+ EC50) [nM] | EC50 ([3]; read-out: Ca^2+ EC50 (bound)) [nM] | helicity retained following cyclization [4] | % α helicity [4] [%] | SGF t1/2 [2] [min] | half-life in SGF relative to sCT ([2]; vs sCT) | half-life ([5]; pH 6.8, 37 °C) [min] | Ca^2+ EC50 / efficacy [3] | improvement in stability in simulated gastric fluid over sCT ([2]; vs sCT, first figure of sentence) [fold] | SIF t1/2 ([5]; pancreatin 2 mg/mL stock, pH 6.8, 37 °C) [min] | improvement in stability in simulated gastric fluid ([5]; vs sCT, second figure of sentence) [fold] | cAMP EC50 / potency [1] | stability in SIF compared to sCT ([5]; pH 6.8, 37 °C, vs sCT)
6 | CC(C)C[C@H](NC(=O)[C@H](CCCCN)NC(=O)CNC(=O)[C@H](CC(C)C)NC(=O)[C@@H](NC(=O)[C@@H]1C[Se][Se]C[C@H](N)C(=O)N[C@@H](CO)C(=O)N[C@@H](CC(N)=O)C(=O)N[C@@H](CC(C)C)C(=O)N[C@@H](CO)C(=O)N[C@@H]([C@@H](C)O)C(=O)N1)C(C)C)C(=O)N[C@@H](CO)C(=O)N[C@@H](CCC(N)=O)C(=O)N[C@@H](CCC(=O)O)C(=O)N[C@@H](CC(C)C)C(=O)N[C@@H](Cc1c[nH]cn1)C(=O)N[C@@H](CCCCN)C(=O)N[C@@H](CC(C)C)C(=O)N[C@@H](CCC(N)=O)C(=O)N[C@H](C(=O)N[C@@H](Cc1ccc(O)cc1)C(=O)N1CCC[C@H]1C(=O)N[C@@H](CCCNC(=N)N)C(=O)N[C@H](C(=O)N[C@@H](CC(N)=O)C(=O)N[C@H](C(=O)NCC(=O)N[C@@H](CO)C(=O)NCC(=O)N[C@H](C(=O)N1CCC[C@H]1C(N)=O)[C@@H](C)O)[C@@H](C)O)[C@@H](C)O)[C@@H](C)O [Se-CT] (H-[Sec]SNLST[Sec]VLGKLSQELHKLQTYPRTNTGSGTP-NH2; diselenide 1-7) | 82.7 ± 16.5 nM |  | 32.6 ± 0.5 | 113 ± 18.3 |  | retain the high degree of helicity | 99.2 |  |  |  |  |  |  |  | EC50 in the nanomolar range | 

From patent publication US20260308222A1, “STABILIZED ANALOGUES OF CALCITONIN” (YISSUM RESEARCH DEVELOPMENT COMPANY OF THE HEBREW …, priority 2024, published 2026)
